{"source": "patent US20120035244A1", "about": "“PARP1 TARGETED THERAPY” (THE REGENTS OF THE UNIVERSITY OF MICHIGAN, priority 2010, published 2012)", "key": {"VCaP cells": {"tested_on": "VCaP cells", "assay": "γ-H2A.X immunofluorescence, VCaP cells", "assay_type": "cell-based, human", "settings": "Olaparib for 48 hours", "protocol": "(§1) Cells were seeded at 25,000 cells/mL in 4-well chamber slide 24 hours prior to the addition of siRNA or drug as indicated. Merbarone (Sigma) was dissolved in DMSO and stored at 4° C. Cells were then washed once in PBS, fixed for 15 minutes in 100% methanol, washed in PBS, permeabilized for 5 minutes in PBS containing 0.2% Triton-X, washed twice in PBS, blocked for 30 minutes in PBS containing 0.5% donkey serum (Sigma, St. Louis, Mo.), held for 45 minutes in PBS containing 0.5% donkey serum and primary antibody: anti-γ-H2A.X mouse monoclonal (Millipore Cat #05-636), anti-γ-H2A.X rabbit polyclonal (Cell Signaling, Cat #9719, Danvers, Mass.), and anti-53BP1 rabbit polyclonal (Cell Signaling, Cat #4937, Danvers, Mass.) washed 3 times with PBS, held for 30 minutes in PBS containing 0.5% donkey serum and secondary antibody: Alexa Fluor 488-anti-Mouse (Invitrogen) or Alexa Fluor 594-anti-Rabbit (Invitrogen). Cells were then stained with DAPI for 5 minutes and slides were mounted 12 hours prior to analysis using Vectashield (Vector laboratories, Burlingame, Calif.). Images were taken using 100× oil lens on an Olympus Confocal microscope at the University of Michigan microscopy imaging lab."}, "T-ALL cell lines": {"tested_on": "T-ALL cell lines", "assay": "T-ALL cell lines: neutral COMET assays and soft agar colony formation", "assay_type": "cell-based", "settings": "with or without 10 μM Olaparib for 48 hours (COMET); soft agar colony formation", "protocol": "The effect of PARP1 inhibitors on T-ALL cell lines was assayed using Western blot analysis of several T-ALL cell lines comparing total ERG expression levels. In addition, neutral COMET assays were performed on a panel of T-ALL cell lines. RWPE was used as an ETS negative control and VCaP cells were used for comparison to an ETS positive model. Cells were treated with or without 10 μM Olaparib for 48 hours as indicated. Soft agar colony formation was performed on cells treated with or without Olaparib as indicated. All experiments were run in triplicate. Error bars are standard error of the mean."}, "PC3-LACZ xenografts": {"tested_on": "PC3-LACZ xenografts", "assay": "PC3-LACZ mouse xenograft model", "assay_type": "in vivo, mice", "settings": "PC3-LACZ (ETS negative)", "source_text": "(§2) Olaparib was obtained from Axon Medchem (Groningen, The Netherlands)."}, "PC3 xenografts": {"tested_on": "PC3 xenografts", "assay": "PC3 (PC3-control) mouse xenograft model", "assay_type": "in vivo, mice", "settings": "PC3 / PC3-control (ETS negative); Olaparib 40 mg/kg IP, NU7026 25 mg/kg IP", "source_text": "as §2"}, "[1]": {"tested_on": "PC3 cells expressing BRCA2 shRNA", "assay": "γ-H2A.X immunofluorescence, PC3 cells expressing BRCA2 shRNA", "assay_type": "cell-based, human", "settings": "BRCA2 depleted PC3 cells, Olaparib", "protocol": "as §1"}, "[2]": {"settings": "Fong et al., N Engl J Med 361, 123-134 (2009); cited from earlier work"}, "panel of cell lines": {"tested_on": "panel of cell lines", "assay": "WST chemosensitivity assay (72 hours)", "assay_type": "cell-based", "settings": "after 72 hours, any of the cell lines tested"}, "[3]": {"tested_on": "PC3 model overexpressing T2:ERG", "assay": "γH2A.X foci after radiation (DNA double strand break repair), isogenic PC3 model", "assay_type": "cell-based", "settings": "PC3, pre-treated with 10 μM Olaparib, then radiation", "protocol": "The effect of ETS overexpression on repair of DNA double strand breaks was assayed. Isogenic PC3 and DU145 models, respectively, overexpressing either T2:ERG or ERG with a deleted ETS domain were pre-treated with or without 10 μM Olaparib and then treated with radiation. Immunofluorescence staining of γH2A.X foci was used to assess total levels of DNA damage and repair rate. The number of cells with >10 γH2A.X foci were quantified at each time point as indicated. Representative photomicrographs were taken 24 hours after treatment using an Olympus confocal microscope with a 100× Oil objective. All experiments were run in triplicate. Error bars are standard error of the mean."}, "DU145 xenografts": {"tested_on": "DU145 xenografts", "assay": "DU145 mouse xenograft model", "assay_type": "in vivo, mice", "settings": "DU145 (ETS negative), Olaparib", "source_text": "as §2"}, "[4]": {"tested_on": "RWPE cells overexpressing SLC45A3-BRAF", "assay": "Basement membrane matrix invasion assay, RWPE-SLC45A3-BRAF cells", "assay_type": "cell-based, human", "protocol": "For invasion assays, the prostate cell lines RWPE-1 and VCaP were transfected with siRNA or negative controls as indicated. NU7026 (Sigma) and NU1025 (Calbiochem) were dissolved in DMSO and stored at −20° C. in the dark. Forty-eight hours post-transfection/transduction, cells were seeded onto the basement membrane matrix (EC matrix, Chemicon, Temecula, Calif.) in the chamber insert with […] pores of a 24-well culture plate in serum free media. Cells were attracted to the lower chamber by the addition of complete media as a chemoattractant. After 48 hours incubation at 37° C. with 5% CO2, the non-invading cells and EC matrix were gently removed with a cotton swab. Invasive cells, which were located on the lower side of the membrane, were stained with crystal violet, air dried and photographed. To quantify the relative number of invaded cells, colorimetric assays were performed by treating the inserts with 150 μl of 10% acetic acid (v/v) and measuring absorbance of each condition at 560 nm using a spectrophotometer (GE Healthcare)."}, "22RV1 xenografts": {"tested_on": "22RV1 xenografts", "assay": "22RV1 mouse xenograft model", "assay_type": "in vivo, mice", "settings": "22RV1 (ETS negative), Olaparib", "source_text": "as §2"}, "BRCA2 shRNA PC3 cells": {"tested_on": "BRCA2 shRNA PC3 cells", "assay": "Neutral COMET assay, BRCA2 shRNA PC3 cells", "assay_type": "cell-based, human", "settings": "P=0.14 and P=0.003, two-way ANOVA", "protocol": "VCaP, PC3, PrEC or RWPE cells were seeded at 250,000 cells/mL in a 6-well plate 24 hours prior to treatment with siRNA, drug or vehicle control. After 48 hours, cells were trypsinized, harvest by centrifugation and re-suspend in PBS. Cell counts were then normalized to 1×10^5 cells/mL. Suspended cells (25 μL) were then mixed with 250 μL 1.0% ultrapure low melting point agarose (Invitrogen) made in 1× Tris-Borate buffer. The agarose-cell mixture was then dropped onto slides allowed to solidify at 4° C. in the dark for 20 minutes before immersion in COMET assay lysis solution (Trevigen, Gaithersburg, Md.) at 4° in the dark for 45 minutes. Excess buffer was then removed and slides were submerged in freshly prepared neutral solution (Tris Base 60.57 g, Sodium Acetate 204.12 g, dissolve in 450 ml of dH2O, adjust to pH=9.0 with glacial acetic acid) at room temperature in the dark for 40 minutes. Slides were then washed twice by immersing in 1×TBE buffer prior to neutral electrophoresis at 20 volts for 30 minutes. Slides were then fixed in 70% ethanol for 5 minutes. […] COMET tail moments were then assessed using COMETscore.v1.5 (AutoCOMET.com, Sumerduck, Va.) image processing software as described by the manufacturer with greater than 100 cells analyzed in triplicate experiments."}}, "note": "“Also recorded” adds a separate entry of the source."}
{"smiles": "O=C(c1cc(Cc2n[nH]c(=O)c3ccccc23)ccc1F)N1CCN(C(=O)C2CC2)CC1", "note": "[Olaparib, 4-[3-(4-Cyclopropanecarbonylpiperazine-1-carbonyl)-4-fluorobenzyl]-2H-phthalazin-1-one]", "values": [{"measurement": "γ-H2A.X foci", "setting": "VCaP cells", "result": "very high level of γ-H2A.X foci"}, {"measurement": "sensitivity of T-ALL cell lines", "setting": "T-ALL cell lines", "result": "sensitive to PARP1 inhibition; also recorded: sensitive to PARP inhibition"}, {"measurement": "xenograft growth", "setting": "PC3-LACZ xenografts", "result": "did not significantly inhibit xenograft growth"}, {"measurement": "xenograft growth", "setting": "PC3 xenografts", "result": "did not block the growth; also recorded: did not significantly inhibit xenograft growth"}, {"measurement": "γ-H2A.X staining", "setting": "[1]", "result": "similarly dramatic increase in γ-H2A.X staining"}, {"measurement": "tolerability in cancer patients", "setting": "[2]", "result": "well tolerated in cancer patients with a minimal side effect profile; also recorded: well tolerated at doses capable of inhibiting PARP activity"}, {"measurement": "in vitro cell proliferation rate", "setting": "panel of cell lines", "result": "did not have an effect"}, {"measurement": "ERG-enhanced DNA DSB damage repair (γH2A.X foci)", "setting": "[3]", "result": "blocked; also recorded: reversed by PARP inhibition"}, {"measurement": "xenograft growth", "setting": "DU145 xenografts", "result": "not responsive; also recorded: did not inhibit the growth"}, {"measurement": "invasion of RWPE SLC45A3-BRAF (negative control)", "setting": "[4]", "result": "does now effect invasion"}, {"measurement": "xenograft growth", "setting": "22RV1 xenografts", "result": "not responsive; also recorded: did not inhibit the growth"}, {"measurement": "COMET tail moments versus Olaparib treated ETS overexpressing cells", "setting": "BRCA2 shRNA PC3 cells", "result": "slightly larger tail moments"}]}
